Activity calls are given as the source filed them. No cut-off for these calls is given here.
Tested on: PC-3
Experiment: Antiproliferative activity against human PC3 cells at 20 ug/ml after 24 hrs by MTT assay
Format: functional, cell-based

| SMILES | Activity |
| --- | --- |
| CCCCCCCCCC[C@@H](O)[C@@H](O)C[C@H](O)[C@@H]1CC[C@@H](CCCCCCCCCC[C@H](O)CC2=C[C@H](C)OC2=O)O1 | Active |
| CCCCCCCCCCCC/C=C/CC[C@H](O)[C@@H]1CC[C@@H]([C@@H](O)CCC(O)CCCCC[C@H](O)CC2=C[C@H](C)OC2=O)O1 (some centres not stated) | Active |
